# Experimental data published in ChEMBL document CHEMBL1201862, “PubChem BioAssay data set” (2004).
#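 Interpolation was linear, between the two tested concentrations surrounding the appropriate level; five concentrations were tested over 48 hours in 96-well plates. GI50 marks 50% less growth.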 The source made the active and inactive calls. Rule as the data show it: active = GI50 up to about 1.1 µM and inactive = higher.
# Columns and labels:
# Experiment in all cases: growth of human tumour cells (NCI), 48 h
# 786-0 = tested on: 786-0
# A498 = tested on: A498
# CAKI-1 = tested on: CAKI-1
# DMS-114 = tested on: DMS-114
# HCC 2998 = tested on: HCC 2998
# HCT-15 = tested on: HCT-15
# HL-60 = tested on: HL-60
# KM12 = tested on: KM12
# MOLT-4 = tested on: MOLT-4
# Malme-3M = tested on: Malme-3M
# NCI-H460 = tested on: NCI-H460
# SF-268 = tested on: SF-268
# SK-MEL-28 = tested on: SK-MEL-28
# SK-OV-3 = tested on: SK-OV-3
# SN12C = tested on: SN12C
# NCI-H226 = tested on: NCI-H226
# RXF 393 = tested on: RXF 393
# SK-MEL-5 = tested on: SK-MEL-5
# PC-3 = tested on: PC-3
# T47D = tested on: T47D
Structure (SMILES),GI50 (786-0),GI50 (A498),GI50 (CAKI-1),GI50 (DMS-114),GI50 (HCC 2998),GI50 (HCT-15) [µM],GI50 (HL-60),GI50 (KM12),GI50 (MOLT-4),GI50 (Malme-3M),GI50 (NCI-H460),GI50 (SF-268),GI50 (SK-MEL-28),GI50 (SK-OV-3),GI50 (SN12C),GI50 (NCI-H226),GI50 (RXF 393),GI50 (SK-MEL-5),GI50 (PC-3),GI50 (T47D)
CCOC(=O)NC(=O)c1cn(CCCCCCCCCCC(=O)NCCCN2CCN(CCCNC(=O)CCCCCCCCCCn3cc(C(=O)NC(=O)OCC)c(=O)[nH]c3=O)CC2)c(=O)[nH]c1=O,> 100 µM (inactive),> 100 µM (inactive),> 10 µM (inactive),> 100 µM (inactive),> 100 µM (inactive),> 100,> 100 µM (inactive),> 100 µM (inactive),> 100 µM (inactive),> 100 µM (inactive),> 100 µM (inactive),> 100 µM (inactive),> 100 µM (inactive),> 100 µM (inactive),> 100 µM (inactive),–,–,–,–,–
CCCCCCCCCC(=O)CC(=O)c1c(O)cccc1O,18.7 µM (inactive),–,33.2 µM (inactive),30.1 µM (inactive),44.6 µM (inactive),–,21.4 µM (inactive),35.1 µM (inactive),31 µM (inactive),35.2 µM (inactive),34.5 µM (inactive),33.8 µM (inactive),62.7 µM (inactive),20.5 µM (inactive),24.4 µM (inactive),25.9 µM (inactive),27 µM (inactive),–,–,–
COc1cc([C@@H]2c3cc4c(c(O)c3C[C@H]3COC(=O)[C@@H]32)OCO4)cc(OC)c1O,0.00596 µM (active),< 0.02 µM (active),< 0.02 µM (active),< 0.02 µM (active),0.0237 µM (active),–,–,–,–,0.0266 µM (active),–,< 0.02 µM (active),–,–,0.033 µM (active),< 0.02 µM (active),0.233 µM (active),< 0.02 µM (active),–,–
CCOC(=O)C(C)c1cc(C2(C)OCCO2)c(C)o1 (configuration not stated),> 100 µM (inactive),–,–,> 100 µM (inactive),> 100 µM (inactive),> 100,> 100 µM (inactive),> 100 µM (inactive),> 100 µM (inactive),> 100 µM (inactive),> 100 µM (inactive),> 100 µM (inactive),–,> 100 µM (inactive),> 100 µM (inactive),–,> 100 µM (inactive),> 100 µM (inactive),–,–
COc1ccccc1C1C(Cl)C(=O)N1NC(=O)Cc1ccccc1 (configuration not stated),> 100 µM (inactive),–,82.4 µM (inactive),37.5 µM (inactive),75.7 µM (inactive),73.6,34.8 µM (inactive),> 100 µM (inactive),27.7 µM (inactive),53.2 µM (inactive),> 100 µM (inactive),> 100 µM (inactive),> 100 µM (inactive),71.4 µM (inactive),> 100 µM (inactive),48.5 µM (inactive),53.1 µM (inactive),61.9 µM (inactive),–,–
c1ccc(-c2csc3ncn4cnnc4c23)cc1,55.7 µM (inactive),–,–,57.9 µM (inactive),> 100 µM (inactive),95.3,86.1 µM (inactive),> 100 µM (inactive),44.1 µM (inactive),–,–,–,> 100 µM (inactive),> 100 µM (inactive),81.7 µM (inactive),54.1 µM (inactive),–,58.1 µM (inactive),–,–
O=C1c2c(Br)sc(Br)c2[C@@H](O)[C@H]1O,15.2 µM (inactive),68.1 µM (inactive),18.4 µM (inactive),–,20.1 µM (inactive),11.4,9.14 µM (inactive),21.2 µM (inactive),5.97 µM (inactive),20.4 µM (inactive),17.2 µM (inactive),10.8 µM (inactive),19.5 µM (inactive),15.6 µM (inactive),16.3 µM (inactive),17.6 µM (inactive),16.2 µM (inactive),18.4 µM (inactive),17.5 µM (inactive),19.4 µM (inactive)
Cc1cccc(NC(=O)CSc2nnc(-c3ccc(/N=C\c4ccc(Cl)cc4)cc3)o2)c1,> 100 µM (inactive),–,–,> 100 µM (inactive),–,> 100,> 100 µM (inactive),> 100 µM (inactive),> 100 µM (inactive),> 100 µM (inactive),> 100 µM (inactive),> 100 µM (inactive),> 100 µM (inactive),> 100 µM (inactive),> 100 µM (inactive),> 100 µM (inactive),60.4 µM (inactive),> 100 µM (inactive),–,–
COc1c(OC(C)=O)c(OC(C)=O)cc2c1-c1ccc(SC)c(=O)cc1C(NC(C)=O)CC2 (configuration not stated),1.69 µM (inactive),4.02 µM (inactive),6.89 µM (inactive),–,0.454 µM (active),9.77,0.208 µM (active),0.504 µM (active),0.968 µM (active),0.468 µM (active),2.9 µM (inactive),0.472 µM (active),0.342 µM (active),2.91 µM (inactive),0.993 µM (active),7.82 µM (inactive),3.66 µM (inactive),0.184 µM (active),2.14 µM (inactive),> 100 µM (inactive)
CCOC(=O)[C@@]1(C)C=C2O[C@@H]3OC4(CCCCC4)O[C@@H]3C2=C2C(O)=CC=C(O)[C@]21C(=O)OC,> 68.1 µM (inactive),> 68.1 µM (inactive),51.4 µM (inactive),> 68.1 µM (inactive),> 68.1 µM (inactive),> 68.1,33 µM (inactive),> 68.1 µM (inactive),33.7 µM (inactive),> 68.1 µM (inactive),> 68.1 µM (inactive),> 68.1 µM (inactive),> 68.1 µM (inactive),> 68.1 µM (inactive),> 68.1 µM (inactive),> 68.1 µM (inactive),–,> 68.1 µM (inactive),–,–
Clc1ccc(-c2noc(CN3CCCCC3)n2)cc1,> 100 µM (inactive),> 100 µM (inactive),> 100 µM (inactive),–,58.9 µM (inactive),> 100,85.9 µM (inactive),> 100 µM (inactive),49.7 µM (inactive),> 100 µM (inactive),> 100 µM (inactive),> 100 µM (inactive),> 100 µM (inactive),> 100 µM (inactive),> 100 µM (inactive),> 100 µM (inactive),44 µM (inactive),34 µM (inactive),> 100 µM (inactive),47.8 µM (inactive)
CC(C)(C)c1cc2c(O)c(c1)Cc1cc(C(C)(C)C)cc(c1O)Cc1cc(C(C)(C)C)cc(c1O)Cc1cc(C(C)(C)C)cc(c1O)Cc1cc(C(C)(C)C)cc(c1O)Cc1cc(C(C)(C)C)cc(c1O)Cc1cc(C(C)(C)C)cc(c1O)Cc1cc(C(C)(C)C)cc(c1O)C2,> 50 µM (inactive),> 50 µM (inactive),> 50 µM (inactive),–,> 50 µM (inactive),> 50,> 50 µM (inactive),> 50 µM (inactive),> 50 µM (inactive),> 50 µM (inactive),> 50 µM (inactive),> 50 µM (inactive),> 50 µM (inactive),> 50 µM (inactive),> 50 µM (inactive),> 50 µM (inactive),> 50 µM (inactive),> 50 µM (inactive),> 50 µM (inactive),> 50 µM (inactive)
